# According to PubChem BioAssay AID743396 (Broad Institute, 2014):
# The source made the active and inactive calls.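 Rule for the calls: active = fitted curve reaches a 40% rise in fluorescent cells at or below the top valid dose; inactive = opposite-direction effect, or the rest.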
# Test: compound fluorescence in GFP channel, mTEFS cells – imaging, mTEFS fibroblasts, cherry-pick, artefact control for X-chromosome reactivation project, dose response (AID 743396);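 note: raw share of Hoechst-counted cells scored GFP positive without control normalization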
# Conditions: mTEFS fibroblasts autofluorescence, GFP-channel imaging, 3 days; at 19.5 µM (top of the series); cells pretreated with 5-aza-dC
row,SMILES,% fluorescent cells increase
1,COc1cccc(CNC(=O)CNC(=S)N(Cc2ccccc2)Cc2ccccc2F)c1,0.054% (inactive)
2,O=C(COC(=O)c1ccc(NS(=O)(=O)c2cccs2)cc1O)NC1CCCCC1,0.547% (inactive)
3,Cc1onc(-c2c(Cl)cccc2Cl)c1-c1nc2cc(Cl)ccc2c(=O)o1,-0.011% (inactive)
4,CCCN1CCN(C(=O)C2CCN(c3nnc(C)c4c(C)n(-c5ccc(C)cc5)nc34)CC2)CC1,0.895% (inactive)
5,CCOC(=O)c1sc(Nc2ccc(Br)cc2)nc1C,1.37% (inactive)
6,Cn1c(=O)[nH]c(=O)c2c1nc1n2CCCN1Cc1ccccc1,-0.011% (inactive)
7,O=C(NCc1ccccc1)c1ccccc1Br,3.38% (inactive)
8,C=CCn1c(=S)[nH]c2scc(-c3ccco3)c2c1=O,0% (inactive)
9,Cc1noc(C)c1S(=O)(=O)Nc1ccc2c(c1)C(=O)N([C@H](C)CO)C[C@H](C)[C@H](CN(C)C(=O)Nc1ccc(F)cc1)OCCCC[C@H](C)O2,0% (inactive)
10,CCOC(=O)c1sc(-c2ccc(F)cc2)cc1NC(=O)Nc1ccccc1OC,-0.011% (inactive)
11,COc1cccc(CNC(=O)C(Cc2ccccc2)n2cccc2)c1 (stereo unspecified),0% (inactive)
12,COC(=O)c1ccc(-n2c(C)cc(C(=O)COC(=O)C3=COCCO3)c2C)cc1,-0.007% (inactive)
13,COc1ccc(COc2ccccc2C(=O)NCc2ccccc2)cc1F,0% (inactive)
14,Cc1ccc(-c2nc(CS(=O)CC(=O)NCCCN3CC(C)CC(C)C3)c(C)o2)cc1 (stereo unspecified),0.023% (inactive)
15,COc1ccccc1NC(=S)N(CCCN1CCOCC1)Cc1cccs1,-0.007% (inactive)
16,NNC(=O)/C(=C\c1ccc(Br)cc1)NC(=O)c1cccs1,0.233% (inactive)
17,ClC1CCCCC1n1nnc2ccccc21 (stereo unspecified),0.006% (inactive)
18,CCOC(=O)[C@]12CCC=C1N(Cc1ccccc1)C(=O)[C@H](CC(=O)N1CCSCC1)C2,0.038% (inactive)
19,COc1ccc(-c2ccc(C3[C@@H]4CN(S(=O)(=O)c5ccccc5C)C[C@H]3N4)cc2)cc1 (stereo partly specified),0% (inactive)

row,SMILES,% fluorescent cells increase
1,NNC(=O)c1sc(-c2ccccc2)cc1N,1.36% (inactive)
2,COc1ccc(NC(=O)Nc2ccc3c(c2)C(=O)N([C@@H](C)CO)C[C@H](C)[C@@H](CN(C)S(=O)(=O)c2ccc(OC)cc2)O3)cc1,0% (inactive)
3,COc1ccccc1N=Nc1c(C)[nH]n(-c2ccccc2)c1=O,0% (inactive)
4,Cc1ccc(Cn2cc(/C=N/Nc3ccc([N+](=O)[O-])cn3)c3ccccc32)cc1,0.941% (inactive)
5,C=CCn1c(SCC(=O)N(CC)C2CCS(=O)(=O)C2)nc2sc3c(c2c1=O)CCC3 (stereo unspecified),0.034% (inactive)
6,Cc1ccsc1C1Nc2ccccc2-c2nc3ccccc3n21 (stereo unspecified),0.699% (inactive)
7,Cc1ccc(S(=O)(=O)Nc2ccc3c(c2)C(=O)N([C@H](C)CO)C[C@@H](C)[C@@H](CN(C)Cc2ccc(Cl)c(Cl)c2)OCCCC[C@H](C)O3)cc1,8.98% (inactive)
8,Cn1c(=O)c2[nH]c(-c3ccc(S(=O)(=O)O)cc3)nc2n(C)c1=O,0.085% (inactive)
9,Cc1ccc(NC(=O)COc2ccc(-c3nnco3)cc2)cc1S(=O)(=O)N1CCOCC1,0.01% (inactive)
10,O=C(O)CSc1ncccn1,0.143% (inactive)
11,CC(C)c1ccc(CN2CCN(C(=O)CSc3nnnn3C3CC3)CC2)cc1,0.042% (inactive)
12,O=C(Nc1cccc(C(=O)O)c1)/C(=C\c1ccccc1)NC(=O)c1ccc(Br)o1,0% (inactive)
13,O=[N+]([O-])c1ccc(Sc2nnnn2-c2ccccc2)nc1,-0.007% (inactive)
14,COc1ccccc1/C=C/C(=O)OCCCN(C)C,0% (inactive)
15,CCCCC(=O)N(C)c1c(CC)nc2c(OCC(=O)c3ccc(F)cc3)cccn12,3.76% (inactive)
16,O=C(CCC(=O)Nc1cccnc1)Nc1cccnc1,0.042% (inactive)
17,CC1=Nc2ccccc2/C1=C\c1sc(Nc2ccc(C)cc2)nc1O,0.199% (inactive)
18,N#CC(C#N)=C1C=CC=CN1/C(=C\c1ccco1)C(=O)c1ccc(Br)cc1,0% (inactive)
19,CN(CC(=O)Nc1ccc(Cl)c(Cl)c1)CC(=O)Nc1ccc2c(c1)OCO2,0% (inactive)

# Same assay, conditions: mTEFS fibroblasts autofluorescence, GFP-channel imaging, 3 days; at 21 µM (top of the series); cells pretreated with 5-aza-dC
row,SMILES,% fluorescent cells increase
1,Cc1ccc(-c2ccccc2[C@@H]2[C@H](C#N)N(S(C)(=O)=O)[C@H]2CO)cc1,-0.036% (inactive)
2,Cc1cccc(CN(C)C[C@@H]2Oc3ncc(C#Cc4ccccc4)cc3C(=O)N([C@H](C)CO)C[C@@H]2C)c1,0% (inactive)
3,Cc1noc(C)c1NC(=O)N(C)C[C@@H]1Oc2ccc(NC(=O)C3CC3)cc2CC(=O)N([C@@H](C)CO)C[C@@H]1C,0.068% (inactive)
